Results reported in US20180050029A1, “SELECTIVE CONNEXIN HEMICHANNELS BLOCKERS FOR THE TREATMENT OF EPILEPSY” (PONTIFICIA UNIVERSIDAD CATÓLICA DE CHILE, priority 2015, published 2018).
Several values for one entry are separate records, joined by “and”; a condition that tells them apart may be missing. Equal values may be shown once. Entries after “also recorded” stand apart in the source; their conditions may differ.

Experiments:
[1] = test system: hemichannels and channels formed by connexins and pannexins; assay: Ethidium uptake in brain slices of PTZ-treated mice, slices treated with Cbx; format: cell-based; conditions: for PTZ-induced ethidium uptake: 20 min on slices, astrocytes, oligodendrocytes and neurons
Method: Adult male mice at 2 months were injected intraperitoneally with PTZ (70 mg/kg) or PBS as a control. After 30 min post injection of the treatment, the action of Cbx at two concentrations was evaluate, 10 μM to block pannexin hemichannels and 100 μM to block both connexin and pannexin-based channels. The mice were sacrificed to extract the brains and obtain coronal slices 400 μm thick. The slices, once stabilized, were treated with Cbx for 20 min and then incubated with the ethidium bromide dye (4 μM) for 10 minutes. Thereafter, the slices were fixed and the immunofluorescence staining process was continued as described above. The mean data of ethidium uptake was normalized to the control condition (dotted line) of each cell type. […] The results obtained were expressed as the mean±SEM. Samples were determined using the Student's t-test (*p<0.05).

C57B/6 mice = assay: Toxicity or lethality of molecule D4, supervision protocol; format: in vivo; conditions: 0.2, 2, 20, 200, 2000 mg/kg i.p.
Method: To evaluate the toxicity or lethality of the molecule D4, Two-month adult mice were injected intraperitoneally in increasing doses (0.2; 2; 20; 200; 2000 mg/kg mouse weight) and were left under observation for 72 hours. After the observation time, the behavioral and physiological aspects of the animals were evaluated based on the Protocol of Supervision according to the Bioethics and Biosafety guidelines of the Faculty of Biological Sciences of the Pontificia Universidad Catolica de Chile that rules in the laboratory. The variables considered included physiological data (weight loss), appearance (posture) and spontaneous behavior (attitude to stimulation). […] In addition, mortality was zero at all concentrations evaluated. The evaluation of mortality of the molecule D4 as an anticonvulsant drug administered in mice prior to the induction of epilepsy with PTZ was zero (Table 3).
Measurements are performed by trained personnel, who know the basal or usual behavior of the animals under study.

[2] = test system: connexin hemichannels in brain cells; assay: Ethidium uptake in brain slices of mice pretreated with D4 before PTZ; format: in vivo; conditions: D4 2 mg/kg i.p. six and one hour before PTZ (70 mg/kg), 30 min post PTZ; microglia, astrocytes and neurons
Method: Immunofluorescence and visualization in confocal microscopy identified cell types.
The mean data from ethidium uptake was normalized to the control condition (see FIG. 5, dotted line) of each cell type. […] The results obtained were expressed as the mean±SEM. Samples were determined using the Student's t-test (*p<0.05).

[3] = test system: PTZ-induced seizures in C57BL/6 mice; assay: PTZ-induced seizures and mortality, anticonvulsant pretreatment; conditions: for Animal Mortality: dead/total animals
adult C57BL/6 mice = assay: PTZ dose response, epileptogenic episodes and mortality in mice; format: in vivo; conditions: for Mortality: dead/total animals
Method: As epileptogenic agent, we used PTZ (Pentylenetetrazole), a GABAA receptor inhibitor widely used in the study and development of anticonvulsant drugs.
To determine the effective dose, a dose response curve was performed based on the available literature. […]

[4] = test system: connexin hemichannels in brain cells; assay: Ethidium uptake in brain slices of PTZ-treated mice (time course); format: in vivo; conditions: PTZ 70 mg/kg i.p.
Method: Adult male mice of 2 months were injected via i.p. with PTZ (70 mg/kg) or phosphate buffered saline (PBS) as a control. Mice were sacrificed after 10, 20 and 30 min post-treatment to extract the brains and generate coronal slices of 400 μm thick using a vibratome. The slices were stabilized for 1 h prior to dye uptake, immersed in ACSF (artificial cerebrospinal fluid), bubbled with 95% O2 and 5% CO2 and at room temperature. Brain slices were incubated with the ethidium bromide dye (Etd, 4 μM) for 10 minutes. Subsequently, the slices were washed and fixed for 1 h with paraformaldehyde (4%). The brain slices were incubated for 40 min with blocking solution (PBS, 0.2% gelatine, 1% triton). Subsequently, the samples were incubated overnight at 4° C. with the primary antibody against molecular markers of the different cell types: anti-mast cell “Transmembrane tyrosine kinase” receptor CD117 (CD117); Integrin αM anti-microglia (CD11b); anti-astrocytes “glial fibrillary acidic protein” (GFAP); anti-oligodendrocytes “proteolipid protein” (PLP) and anti-neuronal neuron-market (NeuN). After washing with PBS (phosphate buffered saline), they were incubated with the Cy2-conjugated secondary antibody for 2 hours at room temperature and avoiding light.
Finally, the brain slices were washed and mounted on Flouromount G mounting medium and observed directly by the laser-scanning confocal microscope (Nikon Eclipse Ti). Consecutive images were taken with 40× target at 1 μm intervals sequentially with two lasers (Argon, 488 nm and Helium/Neon, 543 nm). In FIG. 1, representative images of mast cells (1.A, C), microglia (1.E, F), astrocytes (1.1, K), oligodendrocytes (1.M, O) and neurons (1.Q, S) and Etd-uptake of PTZ-induced control mice and mice (1.B, D, 1.F, H, 1.J, L, 1.N, P, 1.R, T).
The mean data of ethidium uptake was normalized to the control condition (dotted line) of each cell type. […] The results obtained were expressed as the mean±SEM. Samples were determined using the Student's t-test (*p<0.05).

glial hemichannels = assay: Application of PTZ to brain slices; format: cell-based; conditions: PTZ applied to brain slices
[5] = PTZ (70 mg/kg) without molecule D4

## CC1(C)[C@@H](OC(=O)CCC(=O)O)CC[C@]2(C)[C@H]3C(=O)C=C4[C@@H]5C[C@@](C)(C(=O)O)CC[C@]5(C)CC[C@@]4(C)[C@]3(C)CC[C@@H]12 [Carbenoxolone, carbenoxolone]
[1]; Cbx 10 μM
  PTZ-induced ethidium uptake: block the uptake of ethidium
[1]; Cbx 100 μM
  PTZ-induced ethidium uptake: block the uptake of ethidium
[1]; FIG. 3 legend, macroglia and neurons
  PTZ-induced hemichannel and channel activity: blocks hemispheric activity formed by PTZ-induced connexins and channels

## O=C(OC(C(=O)c1ccc(Cl)cc1)c1ccccc1)c1ccc2ccccc2n1 (centres unmarked) [Molecule D4, 2-(4-chlorophenyl)-2-oxo-1-phenylethyl quinoline-2-carboxylate]
C57B/6 mice; 72 hours observation
  Mortality: zero
C57B/6 mice; 72 hours observation, 2000 mg/kg
  observable side effects: no observed side effects; also recorded: no observable side effects
C57B/6 mice; 72 hours, score 0-3 is normal
  supervision protocol score (weight loss, posture, spontaneous behavior): zero
[2]
  PTZ-induced hemichannel activity (ethidium uptake): blocks the activity of hemichannels formed by PTZ-induced connexin in brain cells; also recorded: not positive to Etd; also recorded: blocks PTZ-induced hemichannel activity and basal activation
[3]; Molecule D4 (2 mg/kg) prior to PTZ (70 mg/kg)
  Animal Mortality: zero

## C1CCc2nnnn2CC1 [PTZ, Pentylenetetrazole]
Adult C57BL/6 mice; PTZ 65 mg/kg i.p. single dose
  % Mortality: 0%
  Eliptogenic Episode: No
  Mortality: 0/3
Adult C57BL/6 mice; PTZ 70 mg/kg i.p. single dose
  % Mortality: 20%
  Eliptogenic Episode: induces convulsions and Yes
  Mortality: without being lethal and 3/15
Adult C57BL/6 mice; PTZ 75 mg/kg i.p. single dose
  % Mortality: 50%
  Eliptogenic Episode: Yes
  Mortality: 2/4
Adult C57BL/6 mice; PTZ 80 mg/kg i.p. single dose
  % Mortality: 100%
  Eliptogenic Episode: Yes
  Mortality: 3/3
Adult C57BL/6 mice; PTZ 90 mg/kg i.p. single dose
  % Mortality: 100%
  Eliptogenic Episode: Yes
  Mortality: 3/3
Adult C57BL/6 mice; PTZ-treated mice
  time to develop seizures post-administration: ≤ 10 min
Adult C57BL/6 mice; PTZ-treated mice, period of several hours
  behaviour in the hours after the seizures: very low motor activity and sporadic contractions
Adult C57BL/6 mice; higher doses (>100 mg/kg)
  epileptogenic episodes: induce epileptogenic episodes
Adult C57BL/6 mice; higher doses (>100 mg/kg), at 5 min after administration
  mortality rate: 100%
Adult C57BL/6 mice; lower dose (<65 mg/kg)
  epileptogenic episodes: does not induce evident epileptogenic episodes
[4]; versus control mice
  hemichannel activity (ethidium uptake) in brain slices: induces activity of connexin hemichannels in brain cells; also recorded: positive for high activity of hemichannels; also recorded: positive for Etd fluorescence
[4]; astrocytes and oligodendrocytes, first (FIG. 2.A)
  hemichannel activity (ethidium uptake normalized to control): increases the activity of the hemichannels
[4]; mast cells, microglia and neurons, after 30 min (FIG. 2.B and C)
  hemichannel activity (ethidium uptake normalized to control): increases the activity of the hemichannels
Glial hemichannels
  opening of glial hemichannels: induced the opening of glial hemichannels
[3]; [5]
  % Mortality: 20%
  Animal Mortality: 3/15

## O=C1NC(=O)C(c2ccccc2)(c2ccccc2)N1 [phenytoin, Phenytoin]
[3]; phenytoin treatment, after 10 minutes of treatment
  prevention of PTZ-induced seizures: does not prevent PTZ-induced seizures
